# Test results: paper PMC6249039 (Journal of medicinal chemistry, 2018)
# Molecular target: influenza PA endonuclease (PAN) (Influenza A virus, UniProt C3W5S0, DEL52-63/E64G)
# Type: biochemical, influenza A (A/California/04/2009) H1N1
row,Structure (SMILES),Change in activity with presence or absence of excess metal ions
1,"Cc1cc(=O)c(O)c(C(=O)O)[nH]1 [Compound 17, 3-Hydroxy-6-methyl-4-oxo-1,4-dihydropyridine-2-carboxylic acid]",no change
2,"Cc1cc(=O)c(O)c(C(=O)O)o1 [Compound 1, 3-Hydroxy-6-methyl-4-oxo-4H-pyran-2-carboxylic acid]",no change
